target: T1, rat metabotropic glutamate receptor 5 (rmGluR5) (Rattus norvegicus, UniProt P31424); test: Calcium mobilization (FLIPR) assay for negative allosteric modulation, EC80 glutamate, rmGluR5 in HEK 293; assay type: cell-based; conditions: HEK293; rmGluR5, inhibition of EC80 glutamate response; read-out: FLIPR maximum inhibition
T1 construct: expressed in transfected cells
Procedure: The cDNA for rat metabotropic glutamate receptor 5 (rmGluR5) and the cDNA for human metabotropic glutamate receptor 5 (hmGluR5) were generous gifts from S. Nakanishi (Kyoto University, Kyoto, Japan). The rmGluR5 or hmGluR5 was stably expressed in a HEK 293 cell line and grown in Dulbecco's Modified Eagle Medium (DMEM) (Invitrogen, Carlsbad, Calif.) with supplements (10% bovine calf serum, 4 mM glutamine, 100 units/mL penicillin, 100 μg/mL streptomycin and 0.75 mM G1418) at 37° C., 5% CO2. Twenty-four hours prior to assay, cells were seeded into 384-well black wall microtiter plates coated with poly-D-lysine. Just prior to assay, media was aspirated and cells dye-loaded (25 μL/well) with 3 μM Fluo-4/0.01% pluronic acid in assay buffer (Hank's Balanced Saline Solution (HBSS)): 150 mM NaCl, 5 mM KCl, 1 mM CaCl2, 1 mM MgCl2, plus 20 mM N-2-Hydroxyethylpiperazine-N′-2-ethanesulfonic acid (HEPES), pH 7.4, 0.1% bovine serum albumin (BSA) and 2.5 mM probenicid) for 1 hour in 5% CO2 at 37° C. After excess dye was discarded, cells were washed in assay buffer and layered with a final volume equal to 30 μL/well. Basal fluorescence is monitored in a fluorometric imaging plate reader (FLIPR) (Molecular Devices, Sunnyvale, Calif.) with an excitation wavelength of 488 nm and an emission range of 500 to 560 nm. Laser excitation energy was adjusted so that basal fluorescence readings were approximately 10,000 relative fluorescent units. Cells were stimulated with an EC20 or an EC80 concentration of glutamate in the presence of a compound to be tested, both diluted in assay buffer, and relative fluorescent units were measured at defined intervals (exposure=0.6 sec) over a 3 min period at room temperature. Basal readings derived from negative controls were subtracted from all samples. Maximum change in fluorescence was calculated for each well. Concentration-response curves derived from the maximum change in fluorescence were analyzed by nonlinear regression (Hill equation). A negative modulator can be identified from these concentration-response curves if a compound produces a concentration dependent inhibition of the EC80 glutamate response.

T1 sequence (P31424 21-1203): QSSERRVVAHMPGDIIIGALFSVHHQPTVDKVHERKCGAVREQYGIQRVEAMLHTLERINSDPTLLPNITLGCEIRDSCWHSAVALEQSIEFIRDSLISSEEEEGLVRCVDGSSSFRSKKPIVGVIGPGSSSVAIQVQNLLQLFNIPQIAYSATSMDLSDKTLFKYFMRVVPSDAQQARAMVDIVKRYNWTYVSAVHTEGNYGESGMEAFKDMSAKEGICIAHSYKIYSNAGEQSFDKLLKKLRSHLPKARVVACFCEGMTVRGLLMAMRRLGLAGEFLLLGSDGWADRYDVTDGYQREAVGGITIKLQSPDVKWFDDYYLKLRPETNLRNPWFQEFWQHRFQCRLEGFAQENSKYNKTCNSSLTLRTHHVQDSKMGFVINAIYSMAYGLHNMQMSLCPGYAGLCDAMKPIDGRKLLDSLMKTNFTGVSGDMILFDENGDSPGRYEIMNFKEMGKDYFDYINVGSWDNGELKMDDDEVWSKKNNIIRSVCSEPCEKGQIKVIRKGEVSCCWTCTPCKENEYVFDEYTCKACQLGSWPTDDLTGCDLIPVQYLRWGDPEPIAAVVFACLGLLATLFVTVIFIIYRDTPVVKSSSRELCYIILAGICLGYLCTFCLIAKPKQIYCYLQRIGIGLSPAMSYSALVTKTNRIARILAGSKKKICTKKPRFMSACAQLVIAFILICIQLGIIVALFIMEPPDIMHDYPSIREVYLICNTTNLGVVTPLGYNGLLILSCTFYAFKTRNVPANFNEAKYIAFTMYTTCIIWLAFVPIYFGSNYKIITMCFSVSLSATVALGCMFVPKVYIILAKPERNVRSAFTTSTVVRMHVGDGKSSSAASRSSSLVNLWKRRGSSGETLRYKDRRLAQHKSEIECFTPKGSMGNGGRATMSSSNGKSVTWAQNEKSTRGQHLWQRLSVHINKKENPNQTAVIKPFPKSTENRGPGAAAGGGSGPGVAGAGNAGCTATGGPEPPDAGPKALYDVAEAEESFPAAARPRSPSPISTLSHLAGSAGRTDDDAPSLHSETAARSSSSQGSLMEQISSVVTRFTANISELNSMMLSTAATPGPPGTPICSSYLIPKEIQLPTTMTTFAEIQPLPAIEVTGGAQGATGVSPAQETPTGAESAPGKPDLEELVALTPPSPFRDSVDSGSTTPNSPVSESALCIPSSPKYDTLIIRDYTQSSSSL

SMILES	Emax
O=C(N[C@H]1CCC[C@]2(CCN(c3cccc(F)c3)C2=O)C1)c1ccccn1 (racemic) [Example 19, cis-Pyridine-2-carboxylic acid [2-(3-fluoro-phenyl)-1-oxo-2-aza-spiro[4.5]dec-7-yl]-amide]	81 to 99%
Cc1cccc(N2CC[C@]3(CCC[C@H](NC(=O)c4cccc(F)c4)C3)C2=O)n1 (racemic) [Example 27, cis-3-Fluoro-N-[2-(6-methyl-pyridin-2-yl)-1-oxo-2-aza-spiro[4.5]dec-7-yl]-benzamide]	81 to 99%
Cc1cccc(C(=O)N[C@H]2CCC[C@]3(CCN(c4cccc(C(F)(F)F)n4)C3=O)C2)n1 (racemic) [Example 41, cis-6-Methyl-pyridine-2-carboxylic acid [1-oxo-2-(6-trifluoromethyl-pyridin-2-yl)-2-aza-spiro[4.5]dec-7-yl]-amide]	81 to 99%
Cc1cccc(C(=O)N[C@H]2CCC[C@]3(CCN(c4cc(F)cc(F)c4)C3=O)C2)n1 (racemic) [Example 42, cis-6-Methyl-pyridine-2-carboxylic acid [2-(3,5-difluoro-phenyl)-1-oxo-2-aza-spiro[4.5]dec-7-yl]-amide]	81 to 99%
Cc1cccc(C(=O)N[C@H]2CCC[C@]3(CCN(c4ccc(F)cc4)C3=O)C2)n1 (racemic) [Example 44, cis-6-Methyl-pyridine-2-carboxylic acid [2-(4-fluoro-phenyl)-1-oxo-2-aza-spiro[4.5]dec-7-yl]-amide]	81 to 99%
Cc1cccc(C(=O)N[C@H]2CCC[C@@]3(CCN(c4cccc(Cl)c4)C3=O)C2)n1 (relative stereo) [Example 3, trans-6-Methyl-pyridine-2-carboxylic acid [2-(3-chloro-phenyl)-1-oxo-2-aza-spiro [4.5]dec-7-yl]-amide]	81 to 99%
Cc1cccc(N2CC[C@]3(CCC[C@H](NC(=O)c4ccccn4)C3)C2=O)n1 (relative stereo) [Example 7, cis-Pyridine-2-carboxylic acid [2-(6-methyl-pyridin-2-yl)-1-oxo-2-aza-spiro [4.5]dec-7-yl]-amide]	81 to 99%
N#Cc1cccc(N2CC[C@]3(CCC[C@H](NC(=O)c4ccccn4)C3)C2=O)c1 (relative stereo) [Example 9, cis-Pyridine-2-carboxylic acid [2-(3-cyano-phenyl)-1-oxo-2-aza-spiro[4.5]dec-7-yl]-amide]	81 to 99%
Cc1cccc(C(=O)N[C@H]2CCC[C@]3(CCN(c4cccc(C#N)c4)C3=O)C2)n1 (relative stereo) [Example 10, cis-6-Methyl-pyridine-2-carboxylic acid [2-(3-cyano-phenyl)-1-oxo-2-aza-spiro [4.5]dec-7-yl]-amide]	81 to 99%
Cc1cncc(C(=O)N[C@H]2CCC[C@]3(CCN(c4cccc(C#N)c4)C3=O)C2)n1 (relative stereo) [Example 11, cis-6-Methyl-pyrazine-2-carboxylic acid [2-(3-cyano-phenyl)-1-oxo-2-aza-spiro [4.5]dec-7-yl]-amide]	81 to 99%
Cc1cncc(C(=O)N[C@H]2CCC[C@]3(CCN(c4cccc(Cl)c4)C3=O)C2)n1 (relative stereo) [Example 12, cis-6-Methyl-pyrazine-2-carboxylic acid [2-(3-chloro-phenyl)-1-oxo-2-aza-spiro [4.5]dec-7-yl]-amide]	81 to 99%
O=C(N[C@H]1CCC[C@]2(CCN(c3cccc(Cl)c3)C2=O)C1)c1cnccn1 (relative stereo) [Example 13, cis-Pyrazine-2-carboxylic acid [2-(3-chloro-phenyl)-1-oxo-2-aza-spiro[4.5]dec-7-yl]-amide]	81 to 99%
Cn1ccc(C(=O)N[C@H]2CCC[C@]3(CCN(c4cccc(Cl)c4)C3=O)C2)n1 (relative stereo) [Example 14, cis-1-Methyl-1H-pyrazole-3-carboxylic acid [2-(3-chloro-phenyl)-1-oxo-2-aza-spiro[4.5]dec-7-yl]-amide]	81 to 99%
N#Cc1cccc(N2CC[C@]3(CCC[C@H](NC(=O)c4cccc(F)c4)C3)C2=O)c1 (relative stereo) [Example 15, cis-N-[2-(3-Cyano-phenyl)-1-oxo-2-aza-spiro[4.5]dec-7-yl]-3-fluoro-benzamide]	81 to 99%
N#Cc1cccc(N2CC[C@]3(CCC[C@H](NC(=O)c4cccc(Cl)c4)C3)C2=O)c1 (relative stereo) [Example 16, cis-N-[2-(3-Cyano-phenyl)-1-oxo-2-aza-spiro[4.5]dec-7-yl]-3-chloro-benzamide]	81 to 99%
Cc1cccc(C(=O)N[C@H]2CCC[C@]3(CCN(c4cccc(F)c4)C3=O)C2)n1 (relative stereo) [Example 17, cis-6-Methyl-pyridine-2-carboxylic acid [2-(3-fluoro-phenyl)-1-oxo-2-aza-spiro[4.5]dec-7-yl]-amide]	81 to 99%
Cc1cccc(C(=O)N[C@H]2CCC[C@@]3(CCN(c4cccc(F)c4)C3=O)C2)n1 (relative stereo) [Example 18, trans-6-Methyl-pyridine-2-carboxylic acid [2-(3-fluoro-phenyl)-1-oxo-2-aza-spiro [4.5]dec-7-yl]-amide]	81 to 99%
O=C(N[C@H]1CCC[C@@]2(CCN(c3cccc(F)c3)C2=O)C1)c1ccccn1 (relative stereo) [Example 20, trans-Pyridine-2-carboxylic acid [2-(3-fluoro-phenyl)-1-oxo-2-aza-spiro [4.5]dec-7-yl]-amide]	81 to 99%
Cc1cncc(C(=O)N[C@H]2CCC[C@]3(CCN(c4cccc(F)c4)C3=O)C2)n1 (relative stereo) [Example 21, cis-6-Methyl-pyrazine-2-carboxylic acid [2-(3-fluoro-phenyl)-1-oxo-2-aza-spiro [4.5]dec-7-yl]-amide]	81 to 99%
Cc1cncc(C(=O)N[C@H]2CCC[C@@]3(CCN(c4cccc(F)c4)C3=O)C2)n1 (relative stereo) [Example 22, trans-6-Methyl-pyrazine-2-carboxylic acid[2-(3-fluoro-phenyl)-1-oxo-2-aza-spiro [4.5]dec-7-yl]-amide]	81 to 99%
Cc1cccc(N2CC[C@@]3(CCC[C@H](NC(=O)c4cccc(F)c4)C3)C2=O)n1 (relative stereo) [Example 24, trans-3-Fluoro-N-[2-(6-methyl-pyridin-2-yl)-1-oxo-2-aza-spiro[4.5]dec-7-yl]-benzamide]	81 to 99%
O=C(N[C@H]1CCC[C@]2(CCN(c3ccccn3)C2=O)C1)c1cccc(F)c1 (relative stereo) [Example 26, 3-Fluoro-N-(1-oxo-2-pyridin-2-yl-2-aza-spiro[4.5]dec-7-yl)-benzamide]	81 to 99%
Cc1ccnc(N2CC[C@]3(CCC[C@H](NC(=O)c4ccccn4)C3)C2=O)n1 (relative stereo) [Example 29, cis-Pyridine-2-carboxylic acid [2-(4-methyl-pyrimidin-2-yl)-1-oxo-2-aza-spiro [4.5]dec-7-yl]-amide]	81 to 99%
O=C(N[C@H]1CCC[C@]2(CCN(c3cc(F)ccn3)C2=O)C1)c1ccccn1 (relative stereo) [Example 30, cis-Pyridine-2-carboxylic acid [2-(4-fluoro-pyridin-2-yl)-1-oxo-2-aza-spiro[4.5]dec-7-yl]-amide]	81 to 99%
Cc1cccc(C(=O)N[C@H]2CCC[C@]3(CCN(c4ccc(F)cn4)C3=O)C2)n1 (relative stereo) [Example 31, cis-6-Methyl-pyridine-2-carboxylic acid [2-(5-fluoro-pyridin-2-yl)-1-oxo-2-aza-spiro[4.5]dec-7-yl]-amide]	81 to 99%
Cc1cccc(C(=O)N[C@H]2CCC[C@]3(CCN(c4cc(F)ccn4)C3=O)C2)n1 (relative stereo) [Example 32, cis-6-Methyl-pyridine-2-carboxylic acid [2-(4-fluoro-pyridin-2-yl)-1-oxo-2-aza-spiro[4.5]dec-7-yl]-amide]	81 to 99%
O=C(N[C@H]1CCC[C@]2(CCN(c3ccc(F)cn3)C2=O)C1)c1ccccn1 (relative stereo) [Example 33, cis-Pyridine-2-carboxylic acid [2-(5-fluoro-pyridin-2-yl)-1-oxo-2-aza-spiro [4.5]dec-7-yl]-amide]	81 to 99%
Cc1cccc(C(=O)N[C@H]2CCC[C@]3(CCN(c4nccc(C)n4)C3=O)C2)n1 (relative stereo) [Example 34, cis-6-Methyl-pyridine-2-carboxylic acid [2-(4-methyl-pyrimidin-2-yl)-1-oxo-2-aza-spiro[4.5]dec-7-yl]-amide]	81 to 99%
O=C(N[C@H]1CCC[C@]2(CCN(c3ccc(F)cn3)C2=O)C1)c1cccc(F)c1 (relative stereo) [Example 35, cis-3-Fluoro-N-[2-(5-fluoro-pyridin-2-yl)-1-oxo-2-aza-spiro[4.5]dec-7-yl]-benzamide]	81 to 99%

From US9359297B2, “Spirolactam derivatives and uses of same” (H. Lundbeck A/S, priority 2009, dated 2016)
